Where “and” joins values, the source holds several entries; their conditions need not be identical. Equal entries are not always repeated.
Key:
[1] = tested on: Molt4; experiment: MTT cell growth assay, Molt4; format: cell-based; conditions: Homo sapiens, MOLT-4, 48 or 72 h, read-out: Cell line inhibition of growth GI50 Molt4
Description: (§1) To probe further the effect of compound 2 and related compounds 1, 3, 5, 6 and 7, various concentrations of these compounds were added to 13 different cell lines and incubated for 48 or 72 h. An MTT assay was then performed to evaluate cell growth and survival.

[2] = tested on: 13 different cell lines; experiment: MTT cell growth assay, summary across 13 different cell lines; format: cell-based; conditions: read-out: 50% inhibition of growth (GI50) across the 13 different cell lines; range across 13 cell lines
Description: as §1
Data for the assay with MCF-7 cells and HeLa cells is shown in FIG. 21 and FIG. 22, respectively. […] Thus, compound 2 blocks p97-dependent processes in cells and also blocks the proliferation of cancer cell lines, illustrating its potential utility as an anti-proliferative drug to treat cancer.

[3] = tested on: HeLa; experiment: MTT cell growth assay, HeLa; format: cell-based; conditions: Homo sapiens, 48 or 72 h, read-out: Cell line inhibition of growth GI50 HeLa
Description: as §1

[4] = tested on: HCT116 p53−/−; experiment: MTT cell growth assay, HCT116 p53−/−; format: cell-based; conditions: Homo sapiens, HCT-116, 48 or 72 h, read-out: Cell line inhibition of growth GI50 HCT116 p53−/−
Description: as §1

[5] = tested on: HeLa cell line that stably expresses UbG76V-GFP; experiment: Accumulation of UbG76V-GFP in HeLa cells (fluorescence microscopy); format: cell-based
Description: As a control, the same cells were treated with the proteasome inhibitor MG132. In the latter set of experiments, a HeLa cell line that stably expresses UbG76V-GFP was transfected with either wild type (WT), D1 mutant (E305Q), D2 mutant (E578Q) or E305Q, E578Q double mutant (QQ) murine 97-pcDNA4.1 plasmid (0.05 μg/100 μL) in a 96-well plate. After 23 h, the intensity of UbG76V-GFP signal was measured on a Molecular Devices ImageXpress automated fluorescence microscope. […] The direct accumulation of Ub-G76V-GFP caused by compound 2 at 25 μM is 4-fold less than that caused by MG132 at 2 μM. This is likely due to the fact that only fully folded Ub-G76V-GFP should require p97 for degradation by the proteasome.
As a second test of whether compound 8 can inhibit p97 in vivo, it was evaluated whether it can cause accumulation of the UbG76V-GFP reporter. A HeLa cell line that stably expresses UbG76V-GFP was treated with compound 8 for 1 h at 37° C., and was then evaluated by fluorescence microscopy. As a control, the same cells were treated with the proteasome inhibitor MG132. […] The level of GFP fluorescence was quantified in cells treated with compound 8 at different doses and for different periods of time (FIG. 28).

[6] = target: T532C-Cdc48 (Saccharomyces cerevisiae, UniProt P25694, T532C); experiment: In vitro ATP hydrolysis (malachite green ATPase assay), T532C-Cdc48; format: biochemical, yeast
Sequence of T532C-Cdc48 (P25694 whole entry T532C): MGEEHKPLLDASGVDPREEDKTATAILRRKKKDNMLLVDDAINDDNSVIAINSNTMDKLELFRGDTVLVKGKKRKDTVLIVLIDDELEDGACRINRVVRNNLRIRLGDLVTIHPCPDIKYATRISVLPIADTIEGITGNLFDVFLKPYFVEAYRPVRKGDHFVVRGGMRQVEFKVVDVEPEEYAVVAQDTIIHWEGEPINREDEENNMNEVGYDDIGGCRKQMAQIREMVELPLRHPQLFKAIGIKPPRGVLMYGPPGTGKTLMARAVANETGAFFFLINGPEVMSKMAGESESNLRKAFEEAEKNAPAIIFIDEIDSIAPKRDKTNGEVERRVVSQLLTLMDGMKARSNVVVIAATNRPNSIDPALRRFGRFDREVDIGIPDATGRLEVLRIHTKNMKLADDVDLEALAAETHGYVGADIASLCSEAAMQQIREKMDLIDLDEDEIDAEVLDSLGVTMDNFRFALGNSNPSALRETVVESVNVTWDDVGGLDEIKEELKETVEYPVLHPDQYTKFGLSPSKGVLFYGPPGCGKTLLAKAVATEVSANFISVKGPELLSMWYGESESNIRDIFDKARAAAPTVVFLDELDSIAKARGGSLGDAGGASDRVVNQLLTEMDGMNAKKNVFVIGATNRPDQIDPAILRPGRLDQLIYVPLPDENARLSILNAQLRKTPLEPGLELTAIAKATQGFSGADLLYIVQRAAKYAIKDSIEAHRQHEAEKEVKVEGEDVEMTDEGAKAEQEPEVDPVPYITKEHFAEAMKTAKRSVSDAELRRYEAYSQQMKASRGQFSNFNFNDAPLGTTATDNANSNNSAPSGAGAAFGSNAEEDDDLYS
Description: (§2) Compounds were tested for their ability to inhibit the ATPase activity of purified wild type murine p97 and T532C-Cdc48, a mutant of yeast Cdc48 in which the residue analogous to cysteine 522, threonine 532, was converted to cysteine.
(§3) To determine whether cysteine 522 is necessary for inhibition of p97 by compound 2, a mutant of p97 was constructed in which cysteine 522 was converted to either alanine (C522A-mp97) or threonine (C522T-mp97). The IC50 values of compound 2 were measured the against various enzymes during a 20-minute preincubation (see Table 2). Mutation of cysteine 522 in p97 to either alanine or threonine decreased sensitivity to compound 2 by greater than 100-fold. On the other hand, yeast Cdc48, which normally is quite resistant to compound 2, became nearly 30-fold more sensitive to the compound upon introduction of a cysteine in place of threonine 532.

[7] = tested on: MRC5-SV40; experiment: CellTiter-Glo growth inhibition, MRC5 cells engineered to express SV40; format: cell-based
[8] = target: Hamster NSF (Cricetulus griseus, UniProt P18708); experiment: In vitro ATP hydrolysis, NSF; format: biochemical
Sequence of Hamster NSF (P18708 whole entry): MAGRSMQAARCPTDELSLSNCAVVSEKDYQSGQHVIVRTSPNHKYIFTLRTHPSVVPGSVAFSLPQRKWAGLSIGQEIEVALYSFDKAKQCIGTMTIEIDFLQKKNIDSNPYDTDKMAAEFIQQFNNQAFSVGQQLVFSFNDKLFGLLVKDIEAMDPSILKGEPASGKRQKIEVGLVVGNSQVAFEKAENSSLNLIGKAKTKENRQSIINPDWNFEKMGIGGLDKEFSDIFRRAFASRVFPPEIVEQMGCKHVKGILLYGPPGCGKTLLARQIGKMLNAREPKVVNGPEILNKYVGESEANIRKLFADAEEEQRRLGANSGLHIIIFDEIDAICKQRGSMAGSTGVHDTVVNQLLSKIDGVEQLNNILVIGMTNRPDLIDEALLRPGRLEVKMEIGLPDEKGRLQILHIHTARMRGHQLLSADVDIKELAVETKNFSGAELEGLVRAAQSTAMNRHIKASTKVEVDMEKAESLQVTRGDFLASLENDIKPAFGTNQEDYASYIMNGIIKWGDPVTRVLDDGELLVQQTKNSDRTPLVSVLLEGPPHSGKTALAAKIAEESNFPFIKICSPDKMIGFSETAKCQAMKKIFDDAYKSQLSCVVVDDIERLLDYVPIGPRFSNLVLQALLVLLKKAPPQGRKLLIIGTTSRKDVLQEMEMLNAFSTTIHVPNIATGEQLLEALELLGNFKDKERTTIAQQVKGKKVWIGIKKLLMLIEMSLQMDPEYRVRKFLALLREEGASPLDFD
Description: as §3
To further address the specificity of inhibition by compound 2, its activity against two other AAA ATPases, NSF and the 26S proteasome, was assayed. Although NSF is known to be sensitive to thiol-reactive agents, it was more than 100-fold less sensitive to compound 2 than p97 (Table 2). […] The results with NSF and the 26S proteasome are noteworthy because both the active D1 domain of NSF and the Rpt3 subunit of the 26S proteasome have a cysteine in the position analogous to cysteine 522 of p97 (FIG. 3).

[9] = target: wild type murine p97 (Mus musculus, UniProt Q01853); experiment: In vitro ATP hydrolysis (malachite green ATPase assay), wild type murine p97; format: biochemical
Sequence of wild type murine p97 (Q01853 whole entry): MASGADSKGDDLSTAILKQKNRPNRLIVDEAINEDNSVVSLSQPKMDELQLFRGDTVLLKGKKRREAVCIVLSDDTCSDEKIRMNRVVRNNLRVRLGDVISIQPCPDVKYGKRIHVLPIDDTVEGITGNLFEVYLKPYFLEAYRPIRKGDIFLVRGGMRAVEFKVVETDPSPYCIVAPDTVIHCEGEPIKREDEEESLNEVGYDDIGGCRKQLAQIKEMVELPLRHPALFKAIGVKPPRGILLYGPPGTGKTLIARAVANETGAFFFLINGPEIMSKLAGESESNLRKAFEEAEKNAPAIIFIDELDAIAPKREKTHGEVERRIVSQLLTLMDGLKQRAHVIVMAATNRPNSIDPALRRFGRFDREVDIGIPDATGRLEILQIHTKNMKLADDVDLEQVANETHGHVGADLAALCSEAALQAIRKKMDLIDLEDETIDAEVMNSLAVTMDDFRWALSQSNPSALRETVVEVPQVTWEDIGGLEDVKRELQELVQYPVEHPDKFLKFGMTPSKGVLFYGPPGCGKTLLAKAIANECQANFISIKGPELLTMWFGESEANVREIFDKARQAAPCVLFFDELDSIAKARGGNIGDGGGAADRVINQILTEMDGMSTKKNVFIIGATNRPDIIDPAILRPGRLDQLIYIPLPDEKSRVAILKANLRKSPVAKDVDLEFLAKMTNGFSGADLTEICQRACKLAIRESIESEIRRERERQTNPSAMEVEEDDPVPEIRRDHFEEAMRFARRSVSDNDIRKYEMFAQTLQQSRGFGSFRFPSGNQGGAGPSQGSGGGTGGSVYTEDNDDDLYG
Description: as §2

[10] = tested on: RL; experiment: MTT cell growth assay, RL; format: cell-based; conditions: Homo sapiens, 48 or 72 h, read-out: Cell line inhibition of growth GI50 RL
Description: as §1

[11] = tested on: PC3; experiment: MTT cell growth assay, PC3; format: cell-based; conditions: Homo sapiens, PC-3, 48 or 72 h, read-out: Cell line inhibition of growth GI50 PC3
Description: as §1

**Q.** For `C=CC(=O)Nc1ncnc2c1c(-c1ccccc1)nn2C(C)(C)C` [Compound 2], which GI50 [1] is on record?
**A.** 1100 ± 500 nM

**Q.** What about the GI50 [2] of the same molecule?
**A.** 400 to 5100 nM

**Q.** What about the GI50 [3] of the same molecule?
**A.** 400 ± 300 nM

**Q.** And the GI50 [4]?
**A.** 2500 ± 1500 nM

**Q.** What about the “accumulation of UbG76V-GFP” value ([5]; 4 hours at 37° C., fluorescence microscopy) of the same molecule?
**A.** caused accumulation of UbG76V-GFP

**Q.** What about the “direct accumulation of Ub-G76V-GFP, less than that caused by MG132 at 2 μM” value ([5]; compound at 25 μM vs MG132 at 2 μM) of the same molecule?
**A.** 4 fold

**Q.** What about the IC50 [6] of the same molecule?
**A.** 14000 ± 5000 nM

**Q.** What about the “increase in sensitivity of yeast Cdc48 on introduction of cysteine in place of threonine 532” value ([6]; T532C-Cdc48 vs yeast Cdc48) of the same molecule?
**A.** ~30 fold

**Q.** And the GI50 ([7]; Homo sapiens, MRC5, 48 h at 37° C., CellTiter-Glo, read-out: Cell line inhibition of growth GI50 MRC5-SV40)?
**A.** 7300 ± 5500 nM

**Q.** What about the “greater sensitivity of SV40-transformed cells than WT cell line” value ([7]; MRC5-SV40 vs MRC5-WT GI50) of the same molecule?
**A.** 2 fold

**Q.** And the IC50 ([8]; 20-minute preincubation)?
**A.** 105000 ± 31000 nM

**Q.** What about the “NSF less sensitive than p97” value ([8]; NSF vs p97) of the same molecule?
**A.** more than 100 fold

**Q.** What about the IC50 ([9]; 200 nM p97, 20 min preincubation at 23° C., malachite green, read-out: In vitro ATP Hydrolysis Activity IC50 WT-mP97) of the same molecule?
**A.** 600 nM and 620 nM

**Q.** What about the “inhibitory effect on p97 with nucleophiles in the preincubation” value ([9]; cysteine or dithiothreitol in the preincubation buffer) of the same molecule?
**A.** counteracted

**Q.** And the GI50 [10]?
**A.** 2100 ± 1100 nM

**Q.** What about the GI50 [11] of the same molecule?
**A.** 2200 ± 1100 nM

— patent publication US9089572B2, “Inhibitors of p97” (California Institute of Technology, priority 2008, dated 2015)
